# Assay results: PubChem BioAssay AID212 (DTP/NCI, 2004)
# Values joined by “and” are separate entries in the source; they are usually repeats but may differ in a detail not shown here. Equal entries are not always repeated. Results filed as inconclusive are left out. *1 amine or outer side, *2 acyl side, *3 side chain or, on linkers, in order; H or OH if unused. Where a SMILES comes first, the peptide text is derived from it. [ ]: non-standard residue; d: D form. The star is where a group is joined. X2 = CCC(=O)CC1CC(C)CC(C(=O)[*:2])N1[*:1]; X1 = CCCCCCCCC(C)C(=O)*; Aib = CC(C)(N)C(=O)O; X3 = CC(CN(C)CCO)N*
# Tested on: BDF1 mice, colon carcinoma 38 sc, T/C %
# Assay: NCI In Vivo Anticancer Drug Screen. Data for tumor model Colon Carcinoma 38 (subcutaneous) in B6D2F1 (BDF1) mice
# Summary of the method: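 Compound antitumor activity was assessed in mice carrying transplantable tumors. Survival or tumor size was recorded, and each value is the treated-group measurement divided by that of the vehicle-treated control group.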
# [1] = endpoint: median tumor weight (est.), dose: 50.0 mg/kg/injection, schedule: Q07DX002 (ip), vehicle: saline, higher = larger tumour
# [2] = endpoint: median tumor weight (est.), dose: 100.0 mg/kg/injection, schedule: Q07DX002 (ip), vehicle: saline, higher = larger tumour
# [3] = endpoint: median tumor weight (est.), dose: 200.0 mg/kg/injection, schedule: Q07DX002 (ip), vehicle: saline, higher = larger tumour
# [4] = endpoint: median tumor weight (est.), dose: 400.0 mg/kg/injection, schedule: Q07DX002 (ip), vehicle: saline, higher = larger tumour
# [5] = endpoint: median tumor weight (est.), dose: 100.0 mg/kg/injection, schedule: Q07DX002 (ip), vehicle: saline with Tween-80, higher = larger tumour
# [6] = endpoint: median tumor weight (est.), dose: 200.0 mg/kg/injection, schedule: Q07DX002 (ip), vehicle: saline with Tween-80, higher = larger tumour
# [7] = endpoint: median tumor weight (est.), dose: 12.5 mg/kg/injection, schedule: Q07DX002 (ip), vehicle: Klucel (hydroxypropylcellulose) (HPC), higher = larger tumour
# [8] = endpoint: median tumor weight (est.), dose: 50.0 mg/kg/injection, schedule: Q07DX002 (ip), vehicle: Klucel (hydroxypropylcellulose) (HPC), higher = larger tumour
# [9] = endpoint: median tumor weight (est.), dose: 100.0 mg/kg/injection, schedule: Q07DX002 (ip), vehicle: Klucel (hydroxypropylcellulose) (HPC), higher = larger tumour
# [10] = endpoint: median tumor weight (est.), dose: 25.0 mg/kg/injection, schedule: Q07DX002 (ip), vehicle: Klucel (hydroxypropylcellulose) (HPC), higher = larger tumour
structure (smiles),measurement,setting,value
OCCCN1CCCCC1CO (centres undefined),T/C,"endpoint: median tumor weight (est.), dose: 25.0 mg/kg/injection, schedule: Q07DX002 (ip), vehicle: saline, higher = larger tumour",91 % of control
same,T/C,[1],110 % of control
same,T/C,[2],108 % of control
same,T/C,[3],99 % of control
same,T/C,[4],98 % of control
CONc1ccn(C2OC(CO)C(O)C2O)c(=O)n1 (centres undefined),T/C,[1],92 % of control and 101 % of control
same,T/C,[2],113 % of control
same,T/C,[3],124 % of control
same,T/C,[4],91 % of control
CCN(CC)CCOC(=O)Cc1cccc2c(=O)cc(-c3ccc(Cl)cc3)oc12,T/C,[5],48 % of control
same,T/C,[6],4 % of control
O=C(Nc1ccc(N=C=S)cc1Cl)c1cc(Cl)cc(Cl)c1O,T/C,[7],64 % of control and 65 % of control
same,T/C,[8],80 % of control and 87 % of control
same,T/C,[9],79 % of control
CC(=O)C1(O)Cc2c(O)c3c(c(O)c2C(OC2CC(N)C(O)C(C)O2)C1)C(=O)c1ccccc1C3=O (centres undefined),T/C,"endpoint: median survival time, dose: 1.4 mg/kg/injection, schedule: Q07DX002 (iv), vehicle: saline, higher = longer survival",118 % of control
same,T/C,"endpoint: median tumor weight (est.), dose: 0.37 mg/kg/injection, schedule: Q07DX002 (ip), vehicle: saline, higher = larger tumour",66 % of control
same,T/C,"endpoint: median tumor weight (est.), dose: 0.75 mg/kg/injection, schedule: Q07DX002 (ip), vehicle: saline, higher = larger tumour",67 % of control
Nc1cc2c3c(cccc3c1)C(=O)N(CCN1CCCC1)C2=O,T/C,"endpoint: median tumor weight (est.), dose: 15.0 mg/kg/injection, schedule: Q07DX002 (ip), vehicle: saline with Tween-80, higher = larger tumour",75 % of control
same,T/C,"endpoint: median tumor weight (est.), dose: 25.0 mg/kg/injection, schedule: Q07DX002 (ip), vehicle: saline with Tween-80, higher = larger tumour",117 % of control
same,T/C,"endpoint: median tumor weight (est.), dose: 30.0 mg/kg/injection, schedule: Q07DX002 (ip), vehicle: saline with Tween-80, higher = larger tumour",83 % of control
same,T/C,"endpoint: median tumor weight (est.), dose: 50.0 mg/kg/injection, schedule: Q07DX002 (ip), vehicle: saline with Tween-80, higher = larger tumour",152 % of control
same,T/C,"endpoint: median tumor weight (est.), dose: 60.0 mg/kg/injection, schedule: Q07DX002 (ip), vehicle: saline with Tween-80, higher = larger tumour",73 % of control
same,T/C,[5],90 % of control
same,T/C,"endpoint: median tumor weight (est.), dose: 120.0 mg/kg/injection, schedule: Q07DX002 (ip), vehicle: saline with Tween-80, higher = larger tumour",62 % of control
same,T/C,[6],28 % of control
Cn1cnc([N+](=O)[O-])c1S(=O)(=O)NCN1CCOCC1,T/C,[9],102 % of control and 104 % of control
O=C1C2(Cl)C3(Cl)C4(Cl)C(Cl)(Cl)C5(Cl)[C@]3(Cl)C1(Cl)[C@]5(Cl)C24Cl (some centres undefined),T/C,[10],88 % of control
same,T/C,[8],75 % of control
same,T/C,[9],44 % of control
Cc1cc(=NO)cc(C)n1O,T/C,"endpoint: median tumor weight (est.), dose: 50.0 mg/kg/injection, schedule: Q07DX002 (ip), vehicle: distilled water + alcohol, higher = larger tumour",80 % of control
same,T/C,"endpoint: median tumor weight (est.), dose: 100.0 mg/kg/injection, schedule: Q07DX002 (ip), vehicle: distilled water + alcohol, higher = larger tumour",80 % of control
same,T/C,"endpoint: median tumor weight (est.), dose: 200.0 mg/kg/injection, schedule: Q07DX002 (ip), vehicle: distilled water + alcohol, higher = larger tumour",98 % of control
same,T/C,"endpoint: median tumor weight (est.), dose: 400.0 mg/kg/injection, schedule: Q07DX002 (ip), vehicle: distilled water + alcohol, higher = larger tumour",106 % of control
same,T/C,"endpoint: median tumor weight (est.), dose: 800.0 mg/kg/injection, schedule: Q07DX002 (ip), vehicle: distilled water + alcohol, higher = larger tumour",86 % of control
[I][Hg][CH2]C1OCCOC1[CH2][Hg][I] (centres undefined),T/C,"endpoint: median tumor weight (est.), dose: 1.56 mg/kg/injection, schedule: Q07DX002 (ip), vehicle: Klucel (hydroxypropylcellulose) (HPC), higher = larger tumour",93 % of control
same,T/C,"endpoint: median tumor weight (est.), dose: 3.12 mg/kg/injection, schedule: Q07DX002 (ip), vehicle: Klucel (hydroxypropylcellulose) (HPC), higher = larger tumour",101 % of control
same,T/C,"endpoint: median tumor weight (est.), dose: 6.25 mg/kg/injection, schedule: Q07DX002 (ip), vehicle: Klucel (hydroxypropylcellulose) (HPC), higher = larger tumour",92 % of control
same,T/C,[7],99 % of control and 106 % of control
same,T/C,[10],83 % of control and 91 % of control
CCCCCCCCC(C)C(=O)N1CCCC1C(=O)N1C(CC(=O)CC)CC(C)CC1C(=O)NC(C)C(=O)NC(C)(C)C(=O)NC(C)(C)C(=O)NC(C(=O)NC(C)C(=O)NC(C)(C)C(=O)NC(C)(C)C(=O)NC(C)CN(C)CCO)C(C)CC (centres undefined) (X1-P[X2]A[Aib][Aib]IA[Aib][Aib]-X3; configuration not given here),T/C,"endpoint: median tumor weight (est.), dose: 0.31 mg/kg/injection, schedule: Q07DX002 (ip), vehicle: Klucel (hydroxypropylcellulose) (HPC), higher = larger tumour",123 % of control
same,T/C,"endpoint: median tumor weight (est.), dose: 1.25 mg/kg/injection, schedule: Q07DX002 (ip), vehicle: Klucel (hydroxypropylcellulose) (HPC), higher = larger tumour",86 % of control and 91 % of control
same,T/C,"endpoint: median tumor weight (est.), dose: 2.5 mg/kg/injection, schedule: Q07DX002 (ip), vehicle: Klucel (hydroxypropylcellulose) (HPC), higher = larger tumour",119 % of control
same,T/C,"endpoint: median tumor weight (est.), dose: 5.0 mg/kg/injection, schedule: Q07DX002 (ip), vehicle: Klucel (hydroxypropylcellulose) (HPC), higher = larger tumour",103 % of control and 104 % of control
same,T/C,"endpoint: median tumor weight (est.), dose: 10.0 mg/kg/injection, schedule: Q07DX002 (ip), vehicle: Klucel (hydroxypropylcellulose) (HPC), higher = larger tumour",102 % of control
